According to PMC7179167 (Molecules, 2020):
≈ marks a conversion by molar mass, not a printed value. Where two headings read alike, the source gives them in different places.

Columns and labels:
B. subtilis (ATCC 6633) = assay: Disk diffusion antimicrobial test, B. subtilis; assay type: cell-based, Bacillus subtilis; settings: Bacillus subtilis, ATCC6633, Gram-positive, 20 mg per disc (title), concentration 20 µg (footnote)
Procedure: (§1) The newly synthesized compounds were chosen to be evaluated in vitro towards a variety of pathogenic microorganisms; Gram-positive bacteria: S. aureus (ATCC 6538) and B. subtilis (ATCC 6633); Gram-negative bacteria: P. areuginosa (ATCC 27853) and E. coli (DSMZ 1058); yeast: C. albicans (ATCC 10231) and S. cerevisiae (ATCC 9080) and fungi: A. niger (NRRL A-326) using the disk diffusion method at a single dose of 20 µl. The results are shown in Table 1 as the growth inhibition zone (mm).
(§2) The antimicrobial activity of target compounds were evaluated to be in vitro against a variety of pathogenic microorganisms, namely Staphylococcus aureus (ATCC 6538), Bacillus subtilis (ATCC 6633) (Gram-positive bacteria), Pseudomonas areuginosa (ATCC 27853), Escherichia coli (DSMZ 1058) (Gram-negative bacteria), Candida albicans (ATCC 10231), Saccharomyces cerevisiae (ATCC 9080) (Yeast) and Aspergillus niger (NRRL A-326) (Fungi) using the disk diffusion method at a single dose of 20 µg. The microorganisms were served and obtained from the Microbial Biotechnology Department, National Research Center, Giza, Egypt. Amphotericin, amoxicillin and ciprofloxacin were used as reference drugs (Oxoid™ Disks). The tested compounds 11a–c, 12a–c, 13a–i, 14a–i and 15a,b were dissolved in dimethylsulphoxide (DMSO) at a concentration of 1 mg/mL. Aliquots of 20 μl were soaked on filter paper discs (6 mm) and dried at room temperature under sterilized conditions. The paper discs were placed on inoculated agar plats and then incubated for 24 h at 37 °C for bacterial strains and after 48–72 h incubation at 30 °C for fungi. Both bacterial and yeast strains were grown on nutrient agar medium (g/l): beef extract, 3; peptone, 10 and agar, 20 at pH of 7.2. The fungal strain was grown on Czapek-Dox medium (g/l): sucrose, 30; NaNO3, 3; MgSO4.7H2O, 0.5l; KCl, 0.5; FeSO4, 0.01; K2HPO4, 1 and agar, 20 at pH of 6.0.

S. aureus (ATCC 6538) = assay: Disk diffusion antimicrobial test, S. aureus; assay type: cell-based, Staphylococcus aureus; settings: Staphylococcus aureus, ATCC6538, Gram-positive, 20 mg per disc (title), concentration 20 µg (footnote)
Procedure: as §1, §2

[1] = system: normal skin fibroblast cells (BJ-1); assay: MTT cytotoxicity assay, normal skin fibroblast BJ-1; assay type: cell-based; settings: Homo sapiens, 48 h, read-out: Growth Inhibition (%) BJ-1
Procedure: (§3) MCF-7 (human breast cancer), HCT-116 (human colon cancer) and HepG2 (human liver cancer) cell lines were obtained from Karolinska Institute, Stockholm, Sweden. All cells were maintained in RPMI 1640 medium. The media were supplemented with 10% heat-inactivated fetal bovine serum plus 1% antibiotic-antimycoticmixture (10,000 U/mL of potassium penicillin, 10,000 μg/mL of streptomycin sulfate, 25 μg/mL of amphotericin B and 1% of L glutamine (Biowest, USA)). BJ-1 of a human skin fibroblast derived from normal foreskin was obtained from ATCC® CRL-2522™ as a frozen ampoule with about 1 × 10^6 cells per 1 ml volume. BJ-1 was maintained in MEM with 2 mM of L-glutamine and Earle’s salts medium.
(§4) Cell viability was studied using the MTT 3-(4,5-dimethylthiazol-2-yl)-2,5-diphenyl-tetrazolium bromide (Bio Basic Canada Inc. Toronto, Canada) assay [33]. The steps were executed in a sterile laminar air flow cabinet biosafety class II level (Baker, SG403INT; Sanford, ME, USA). All incubations were carried out at 37 °C in a 5% CO2 incubator under a humidified atmosphere of 95% (Sheldon, TC2323; Cornelius, OR, USA). Cells were seeded into 96-well microtiter plastic plates at a concentration of (10^4 cells/well) and allowed to adhere for 24 h. The medium was aspirated and then added to the cells with the test compounds 11a–c, 12a–c, 13a–i, 14a–i and 15a,b at a single dose of 100 μg/mL in DMSO. After incubation of the medium for 48 h, 40 μL of MTT salt (2.5 μg/mL) was added to each well and then incubated for an additional 4 h. To stop the reaction and dissolve any formed formazan crystals, 200 μL of 10% sodium dodecyl sulfate (SDS) were added to each well and incubated overnight at 37 °C. The amount of formazan product was measured at 595 nm with a reference wavelength of 690 nm as a background using a microplate reader (Bio-Rad Laboratories, model 3350, California, USA). For the untreated cells (negative control), the medium was added instead of the tested compounds. […] Dimethylsulfoxide (DMSO) was the vehicle used for dissolution of the testing compound, and its final concentration on the cells was less than 0.2%. At the same dilution, the solvent concentration was the same for all drugs and between the control and drug treatments.

[2] = system: MCF-7 (human breast cancer); assay: MTT cytotoxicity assay, MCF-7; assay type: cell-based; settings: for inhibition at 100 µg/mL: MCF7, 100 µg/ml, 48 h, read-out: Growth Inhibition (%) MCF-7; for IC50: MCF7, 48 h post-treatment
Procedure: as §3, §4

[3] = system: HCT-116 (human colon cancer); assay: MTT cytotoxicity assay, HCT-116; assay type: cell-based; settings: Homo sapiens; for inhibition at 100 µg/mL: HCT-116, 100 µg/ml, 48 h, read-out: Growth Inhibition (%) HCT-116; for IC50: HCT-116, 48 h, 48 h post-treatment
Procedure: as §3, §4

[4] = DPPH free radical scavenging assay; assay type: biochemical; settings: concentration of 20µg/l, mean ± SD of three experiments
Procedure: Antioxidant activity of the newly synthesized 13a–i, 14a–i, 11a–c and 12a–c were assessed in terms of hydrogen-donating or radical-scavenging ability via the stable free radical 1,1-diphenyl-2-picrylhydrazyl (DPPH) using ascorbic acid as a reference at a concentration of […].
The free radical scavenging activity (RSA) was assessed spectrophotometically at 517 nm via decoloration of the solution of the DPPH (1,1-diphenyl-2-picrylhydrazyl) radical according to Brand-Williams et al. 1995 [32]. DPPH solution was prepared by dissolving of 20 mg of DPPH in one liter of dimethylsulphoxide (DMSO). A freshly prepared DPPH solution was used for the assay. Each of the tested compounds 11a–c, 12a–c, 13a–i, 14a–i and 15a,b were dissolved in DMSO (1mg/mL). A volume of […] of a DMSO stock solution of the test compounds was added to 2 mL of freshly prepared DPPH in DMSO solution. The mixtures were shaken in a vortex (2500 rpm) for 1 min and then left to stand for 15, 30, 45 and 60 min in the dark room. The absorbance was measured at 517 nm against blank using UV visible spectrophotometer 2401 PC (Shimadzu, Kyoto, Japan). Lower absorbance of the reaction mixture indicated higher free radical scavenging activity was analyzed from the graph plots of the inhibition percentage against the compound concentration. The experiment was carried out in triplicate and averaged. The scavenging activity was calculated according to the following formula:Scavenging ability (%) = (A517 of control - A517of sample / A 517 of control) ×100(1)

C. albicans (ATCC 10231) = assay: Disk diffusion antimicrobial test, C. albicans; assay type: cell-based, Candida albicans; settings: Candida albicans, ATCC10231, disk diffusion; yeast; 20 mg per disc (title), concentration 20 µg (footnote)
Procedure: as §1, §2

[5] = system: S. cerevisiae (ATCC 9080); assay: Disk diffusion antimicrobial test, S. cerevisiae; assay type: cell-based; settings: Saccharomyces cerevisiae, ATCC9080, yeast, 20 mg per disc (title), concentration 20 µg (footnote)
Procedure: as §1, §2

[6] = system: P. aeruginosa (ATCC 27853); assay: Disk diffusion antimicrobial test, P. aeruginosa; assay type: cell-based, Pseudomonas areuginosa; settings: Pseudomonas aeruginosa, ATCC27853, Gram-negative, 20 mg per disc (title), concentration 20 µg (footnote)
Procedure: as §1, §2

[7] = system: HepG-2 (human liver cancer); assay: MTT cytotoxicity assay, HepG-2; assay type: cell-based; settings: for inhibition at 100 µg/mL: HepG2, 100 µg/ml, 48 h, read-out: Growth Inhibition (%) HepG-2; for IC50: HepG2, 48 h post-treatment
Procedure: as §3, §4

[8] = 15 min, read-out: Scavenging Activity (%) on DPPH radicals at 15 min
[9] = 30 min, read-out: Scavenging Activity (%) on DPPH radicals at 30 min
[10] = 45 min, read-out: Scavenging Activity (%) on DPPH radicals at 45 min
[11] = 60 min, read-out: Scavenging Activity (%) on DPPH radicals at 60 min

| Compound | zone of inhibition at 20 µg/disc (B. subtilis (ATCC 6633)) [mm] | zone of inhibition at 20 µg/disc (S. aureus (ATCC 6538)) [mm] | inhibition at 100 µg/mL [1] [%] | melting point [°C] | inhibition at 100 µg/mL [2] [%] | inhibition at 100 µg/mL [3] [%] | inhibition [4, 8] [%] | inhibition [4, 9] [%] | inhibition [4, 10] [%] | inhibition [4, 11] [%] | zone of inhibition at 20 µg/disc (C. albicans (ATCC 10231)) [mm] | zone of inhibition at 20 µg/disc [5] [mm] | zone of inhibition at 20 µg/disc [6] [mm] | inhibition at 100 µg/mL [7] [%] | IC50 [7] [µg/mL] | IC50 [2] [µg/mL] | IC50 [3] [µg/mL] |
| --- | --- | --- | --- | --- | --- | --- | --- | --- | --- | --- | --- | --- | --- | --- | --- | --- | --- |
| CC1(C)S[C@@H]2[C@H](NC(=O)[C@H](N)c3ccc(O)cc3)C(=O)N2[C@H]1C(=O)O [Amoxicillin, amoxicillin, reference compound] | 28.4 | 25.6 |  |  |  |  |  |  |  |  |  |  |  |  |  |  |  |
| CCOc1cc2occc2c(OC)c1C1=NNC2(C1)C(=O)Nc1ccccc12 (stereo not drawn) [Compound 11c, 5’-(6-Ethoxy-4-methoxy-benzofuran-5-yl)-2’,4’-dihydrospiro(indoline-3,3’-pyrazol)-2-one] | 10 |  | 45.2 | 137 to 139 | 0 | 30.2 | 40.6 ± 1.28 | 40.6 ± 1.81 | 40.6 ± 1.67 | 40.6 ± 1.35 | 25 | 25 | 10 |  |  |  |  |
| O=C1Nc2ccccc2C12CC(c1c[nH]c3ccccc13)=NN2 (stereo not drawn) [Compound 13a, 5’-(1H-Indol-3-yl)-2’,4’-dihydrospiro(indoline-3,3’-pyrazol)-2-one] |  |  | 11.6 | 318 to 320 | 96.4 | 96.9 | 41.1 ± 1.25 | 45.8 ± 1.36 | 56.5 ± 1.99 | 64.1 ± 2.01 | 18 | 20 |  | 89.3 | 60.6 (≈ 200 µM) | 32.4 (≈ 107 µM) | 31.3 (≈ 104 µM) |
| O=C(c1ccccc1Cl)n1cc(C2=NNC3(C2)C(=O)Nc2ccccc23)c2ccccc21 (stereo not drawn) [Compound 13e, 5’-(N-(2-Chloro-benzoyl)-1H-indol-3-yl)-2’,4’-dihydrospiro(indoline-3,3’-pyrazol)-2-one] |  |  | 10.3 | 219 to 221 | 96.4 | 90.4 | 9.1 ± 1.38 | 26.1 ± 1.26 | 36.7 ± 1.62 | 48.1 ± 1.82 |  |  |  | 79.8 | 67.1 (≈ 152 µM) | 31.9 (≈ 72.4 µM) | 35.4 (≈ 80.3 µM) |
| O=C(c1ccc(Cl)cc1)n1cc(C2=NNC3(C2)C(=O)Nc2ccccc23)c2ccccc21 (stereo not drawn) [Compound 13f, 5’-(N-(4-Chloro-benzoyl)-1H-indol-3-yl)-2’,4’-dihydrospiro(indoline-3,3’-pyrazol)-2-one] |  |  | 16.4 | 202 to 204 | 79.7 | 86.5 | 17.9 ± 1.62 | 28.3 ± 1.61 | 34.3 ± 1.27 | 40.7 ± 1.54 |  |  |  | 72.8 | 83.6 (≈ 190 µM) | 32.1 (≈ 72.8 µM) | 28.4 (≈ 64.4 µM) |
| CCn1cc(C2=NNC3(C2)C(=O)Nc2ccccc23)c2ccccc21 (stereo not drawn) [Compound 13b, 5’-(N-Ethyl-1H-indol-3-yl)-2’,4’-dihydrospiro(indoline-3,3’-pyrazol)-2-one] |  |  | 10.4 | 143 to 145 | 95.4 | 94.5 | 43.5 ± 1.98 | 47 ± 1.81 | 56.3 ± 1.29 | 65.5 ± 1.55 | 18 | 18 |  | 81.4 | 48 (≈ 145 µM) | 24 (≈ 72.6 µM) | 21.3 (≈ 64.5 µM) |
| O=C(c1ccccc1)n1cc(C2=NNC3(C2)C(=O)Nc2ccccc23)c2ccccc21 (stereo not drawn) [Compound 13d, 5’-(N-Benzoyl-1H-indol-3-yl)-2’,4’-dihydrospiro(indoline-3,3’-pyrazol)-2-one] |  |  | 7 | 307 to 309 | 96.4 | 94.6 | 19.3 ± 1.24 | 31.3 ± 1.81 | 25.9 ± 1.24 | 39.7 ± 1.99 |  |  |  | 82.7 | 60.9 (≈ 150 µM) | 25.4 (≈ 62.5 µM) | 26.9 (≈ 66.2 µM) |
| O=C1Nc2ccccc2C12CC(c1cn(S(=O)(=O)c3ccc(Br)cc3)c3ccccc13)=NN2 (stereo not drawn) [Compound 13g, 5’-(N-(4-Bromo-benzenesulfonyl)-1H-indol-3-yl)-2’,4’-dihydrospiro(indoline-3,3’-pyrazol)-2-one] |  |  | 13 | 190 to 192 | 91.6 | 92.4 | 25.9 ± 1.85 | 44 ± 1.46 | 49.2 ± 1.77 | 53.7 ± 1.81 |  |  |  | 81.9 | 72.2 (≈ 138 µM) | 43 (≈ 82.5 µM) | 35.3 (≈ 67.7 µM) |
